Source: patent US7276502B2, “Thiazoles useful as inhibitors of protein kinases” (Vertex Pharmaceuticals Incorporated, priority 2003, dated 2007)

Assays:
SYK = SYK (Homo sapiens, UniProt P43405); test: SYK inhibition assay (standard coupled enzyme assay); type: biochemical; settings: coupled enzyme assay, 200 μM ATP, 4 μM poly Gly-Tyr peptide, 30° C.; read-out: Ki (SYK)
Protocol: Reactions were carried out in 100 mM HEPES (pH 7.5), 10 mM MgCl2, 25 mM NaCl, 1 mM DTT and 1.5% DMSO. Final substrate concentrations in the assay were 200 μM ATP (Sigma chemical Co.) and 4 μM poly Gly-Tyr peptide (Sigma Chemical Co.). Assays were carried out at 30° C. and 200 nM SYK. Final concentrations of the components of the coupled enzyme system were 2.5 mM phosphoenolpyruvate, 300 μM NADH, 30 μg/ml pyruvate kinase and 10 μg/ml lactate dehydrogenase.
An assay stock buffer solution was prepared containing all of the reagents listed above, with the exception of SYK, DTT, and the test compound of interest of the present invention. 56 μl of the test reaction was placed in a 96 well plate followed by the addition of 1 μl of 2 mM DMSO stock containing the test compound of the present invnetion (final compound concentration 30 μM).

ZAP-70 = biological target: T1, ZAP-70 (Homo sapiens, UniProt P43403); test: ZAP-70 inhibition assay (standard coupled enzyme assay); type: biochemical; settings: 100 μM ATP, 20 μM poly-4EY peptide, 30° C., 60 nM ZAP-70
T1 sequence (P43403 1-619): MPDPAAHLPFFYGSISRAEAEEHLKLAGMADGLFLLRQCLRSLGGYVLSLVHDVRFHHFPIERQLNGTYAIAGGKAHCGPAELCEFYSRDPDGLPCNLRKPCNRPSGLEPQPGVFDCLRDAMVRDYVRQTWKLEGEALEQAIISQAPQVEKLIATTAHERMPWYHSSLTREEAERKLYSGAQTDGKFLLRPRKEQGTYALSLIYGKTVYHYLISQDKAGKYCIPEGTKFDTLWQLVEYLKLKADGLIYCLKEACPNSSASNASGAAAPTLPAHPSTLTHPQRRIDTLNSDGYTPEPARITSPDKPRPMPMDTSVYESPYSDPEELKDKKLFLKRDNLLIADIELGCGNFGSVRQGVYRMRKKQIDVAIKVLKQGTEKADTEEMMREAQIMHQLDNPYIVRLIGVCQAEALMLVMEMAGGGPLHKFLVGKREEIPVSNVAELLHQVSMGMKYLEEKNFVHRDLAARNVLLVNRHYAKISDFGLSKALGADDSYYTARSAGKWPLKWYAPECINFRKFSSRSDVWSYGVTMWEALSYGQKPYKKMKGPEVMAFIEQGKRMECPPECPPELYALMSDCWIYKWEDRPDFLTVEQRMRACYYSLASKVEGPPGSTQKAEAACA
Protocol: Compounds were screened for their ability to inhibit ZAP-70 using a standard coupled enzyme assay (Fox et al., Protein Sci. 1998, 7, 2249). Assays were carried out in a mixture of 100 mM HEPES (pH 7.5), 10 mM MgCl2, 25 mM NaCl, 2 mM DTT and 3% DMSO. Final substrate concentrations in the assay were 100 μM ATP (Sigma Chemicals) and 20 μM peptide (poly-4EY, Sigma Chemicals). Assays were carried out at 30° C. and 60 nM ZAP-70. Final concentrations of the components of the coupled enzyme system were 2.5 mM phosphoenolpyruvate, 300 μM NADH, 30 μg/ml pyruvate kinase and 10 μg/ml lactate dehydrogenase.
An assay stock buffer solution was prepared containing all of the reagents listed above, with the exception of ZAP-70 and the test compound of interest of the present invention. 55 μl of the stock solution was placed in a 96 well plate followed by addition of 2 μl of DMSO stock containing serial dilutions of the test compound of the present invention (typically starting from a final concentration of 15 μM). The plate was preincubated for 10 minutes at 30° C. and the reaction initiated by addition of 10 μl of enzyme (final concentration 60 nM). Initial reaction rates were determined with a Molecular Devices SpectraMax Plus plate reader over a 15 minute time course. Ki data was calculated from non-linear regression analysis using the Prism software package (GraphPad Prism version 3.0a for Macintosh, GraphPad Software, San Diego Calif., USA).

Row | Ki (SYK) [µM] | Ki (ZAP-70) [µM] | SMILES
1 | ≤ 5 | ≤ 5 | CC(=O)Nc1cc(C)cc(Nc2nccc(-c3ncc(C)s3)n2)c1 [Example I-154]
2 | ≤ 5 | ≤ 5 | Cc1cc(Nc2nccc(-c3ncc(C)s3)n2)cc(NS(C)(=O)=O)c1 [Example I-155]
3 | ≤ 5 | ≤ 5 | COCc1cc(N)cc(Nc2nccc(-c3ncc(C)s3)n2)c1 [Example I-156]
